# Test results as given in patent publication US20240000747A1, “SIRTUIN 6 ACTIVATOR” (DAICEL CORPORATION, priority 2020, published 2024).
# Tested on: human SIRT6 promoter
# Experiment: SIRT6 promoter activity in Caco-2-SIRT6p-EGFP reporter cells
# Format: cell-based
# Details: Caco-2-SIRT6p-EGFP cells, 10 μM test component, two days after addition, EGFP fluorescence, relative ratio to control (PBS); FIG. 1
# Source text: The human SIRT6 promoter region (from −1105 to −1 bp; SEQ ID NO: 1) was amplified by PCR using KOD FX (TOYOBO, Tokyo, Japan) with genomic DNA derived from human fetal fibroblast TIG-1 as a template. Primers used were obtained by adding restriction endonuclease recognition sequences of AseI and NheI to the ends based on the reported base sequence information of the hSIRT6 promoter. Specifically, […] designed as SIRT6p-AseI ([…]: SEQ ID NO: 2) and SIRT6p-NheI ([…]: SEQ ID NO: 3) were used. KOD FX (TOYOBO) was used as the DNA polymerase, and PCR was performed under reaction conditions of 40 cycles with one cycle of 94° C. for 2 minutes, 98° C. for 10 seconds, and 68° C. for 1 minute.
# The SIRT6 promoter fragment obtained by PCR was TA-cloned into a pGEM-T Easy Vector (Promega Corporation). In addition, the base sequence was confirmed by sequencing. The SIRT6 promoter fragment incorporated into the pGEM-T Easy vector was excised by digestion with restriction enzymes AseI and NheI and inserted into a site of EGFP-C3 (available from Takara Bio Inc.) from which the CMV promoter had been removed by AseI and NheI digestion, and pSIRT6p-EGFP was obtained.
# Transfection was performed using HilyMax available from DOJINDO in accordance with its protocol. On the day before transfection, 6.0×10^5 cells of Caco-2 cells (human colon cancer-derived cells; obtained from RIKEN BioResource Research Center) were seeded in a 5-mL dish. On the day of transfection, pSIRT6p-EGFP (15 μg) was diluted with DMEM medium containing 10% FBS to a volume of 300 μL in a 1.5-mL tube, then 70 μL of Hilymax was added to the tube, and the mixture was incubated at room temperature for 20 minutes. Thereafter, the whole amount was added to Caco-2 cells and cultured for 48 hours.
# Based on the fact that pSIRT6p-EGFP is resistant to the drug G418 (available from Wako Pure Chemical Industries, Ltd.), drug selection was performed by adding the drug G418 to transfected cells to a final concentration of 800 μg/mL. The culture medium was replaced with a fresh culture medium every 3 days, and G418 was added at the same concentration each time. Caco-2-SIRT6p-EGFP cells were obtained from this.
# Using Caco-2-SIRT6p-EGFP cells, a urolithin was examined for its enhancing effect on the promoter of the sirtuin 6 gene SIRT6. […]
# Caco-2-SIRT6p-EGFP cells were seeded in a 96-well plate at 0.6×10^4 cells/well. […] This was followed by aspiration and addition of 100 μL of PBS to each well, and the fluorescence intensity was measured with an IN Cell Analyzer 1000 (GE-Healthcare, Amersham Place, UK). The promoter activity was expressed as a relative ratio to the control activity.
row,Compound,relative SIRT6 promoter activity (SIRT6 promoter-enhancing activity)
1,C[C@@]12CCc3occc3[C@H]1CC[C@@]13C[C@@H](CC[C@H]12)[C@@](O)(CO)C3 [cafestol],no or little SIRT6 promoter-enhancing activity
2,O=c1oc2cc(O)ccc2c2ccc(O)cc12 [urolithin A],strong SIRT6 promoter-enhancing activity
3,O=C1OC[C@H]2OC(O)[C@H](O)[C@@H](O)[C@@H]2OC(=O)c2cc(O)c(O)c(O)c2-c2c(O)c(O)c3oc(=O)c4c(c(O)c(O)c5oc(=O)c2c3c54)-c2c1cc(O)c(O)c2O (mixture of isomers) [punicalin],no or little SIRT6 promoter-enhancing activity
4,puricalagin,no or little SIRT6 promoter-enhancing activity
